Measured values as given in patent US20040014637A1, “Mechanism for the inactivation of insulin receptor and uses in the treatment of type II diabetes” (McGill University, priority 1998, published 2004).

Key:
[1] = molecular target: T1, insulin receptor (Rattus norvegicus, UniProt P15127); test: 125I-insulin binding after preincubating endosomes (ENs containing IR) with nucleotides; details: Table 2; addition 10 mM, 37° C. 15 min; normalized to endosomes without nucleotide
T1 construct: from tissue; host or cells: rat liver; endosome (EN) and plasma membrane (PM) fractions
T1 sequence (P15127 27-759 limits assumed): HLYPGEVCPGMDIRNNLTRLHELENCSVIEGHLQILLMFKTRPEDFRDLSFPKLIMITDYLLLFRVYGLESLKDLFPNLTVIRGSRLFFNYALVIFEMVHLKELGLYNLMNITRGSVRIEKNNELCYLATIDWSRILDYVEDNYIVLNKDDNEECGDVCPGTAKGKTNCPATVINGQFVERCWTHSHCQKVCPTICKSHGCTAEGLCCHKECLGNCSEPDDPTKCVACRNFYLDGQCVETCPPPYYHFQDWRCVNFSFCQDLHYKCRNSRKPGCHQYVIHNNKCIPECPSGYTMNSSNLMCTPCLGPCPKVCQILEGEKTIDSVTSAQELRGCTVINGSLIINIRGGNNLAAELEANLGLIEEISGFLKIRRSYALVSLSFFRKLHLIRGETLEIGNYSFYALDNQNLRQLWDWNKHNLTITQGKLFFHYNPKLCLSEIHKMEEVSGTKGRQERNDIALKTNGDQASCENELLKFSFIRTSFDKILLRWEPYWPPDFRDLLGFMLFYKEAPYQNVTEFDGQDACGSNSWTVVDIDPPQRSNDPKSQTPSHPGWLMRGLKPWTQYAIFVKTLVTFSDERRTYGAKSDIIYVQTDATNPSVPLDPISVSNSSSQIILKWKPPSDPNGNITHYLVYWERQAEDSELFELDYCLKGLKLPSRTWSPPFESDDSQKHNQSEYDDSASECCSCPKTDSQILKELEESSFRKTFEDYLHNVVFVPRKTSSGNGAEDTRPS
T1 sequence (P15127 764-1383 limits assumed): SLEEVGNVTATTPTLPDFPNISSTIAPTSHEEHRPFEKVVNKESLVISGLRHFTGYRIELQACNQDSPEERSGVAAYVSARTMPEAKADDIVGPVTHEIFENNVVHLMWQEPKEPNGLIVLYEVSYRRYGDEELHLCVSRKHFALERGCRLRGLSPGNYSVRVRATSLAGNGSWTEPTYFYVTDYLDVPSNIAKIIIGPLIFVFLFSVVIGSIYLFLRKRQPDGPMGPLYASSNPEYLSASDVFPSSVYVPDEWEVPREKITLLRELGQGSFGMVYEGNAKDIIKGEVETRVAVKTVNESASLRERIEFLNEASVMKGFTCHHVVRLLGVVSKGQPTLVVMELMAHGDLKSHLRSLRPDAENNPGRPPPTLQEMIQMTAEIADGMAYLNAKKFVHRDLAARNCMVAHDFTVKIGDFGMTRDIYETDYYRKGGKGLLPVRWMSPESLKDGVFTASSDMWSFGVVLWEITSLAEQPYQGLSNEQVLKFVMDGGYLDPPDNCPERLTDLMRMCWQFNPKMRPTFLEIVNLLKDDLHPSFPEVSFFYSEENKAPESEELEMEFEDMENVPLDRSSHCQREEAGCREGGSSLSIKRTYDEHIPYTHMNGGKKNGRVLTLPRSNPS
Procedure: Rats were anaesthetized with ether and were injected via jugular vein with a dose (per 100 g body weight) of insulin (1.5 μg), or bpV(phen) (0.6 μmol), dissolved in 0.2 ml. phosphate buffered saline (pH 7.4) −0.1% BSA. […] Livers were rapidly excised, placed in ice-cold homogenizing buffer (50 mM HEPES (pH 7.4), 0.25 M sucrose, 1 mM PMSF, 1 MM MgCl2, 1 mM benzamidine) and minced before homogenization. […] These subcellular fractions have been characterized in detail both morphologically and biochemically.
After 10 min at room temperature, the reactions was terminated by spotting 50 μl aliquots on Whatman 3 MM filters.
In the present study we wished to assess whether other processes might be involved in reducing the association of intraendosomal insulin with its receptor. We examined the effect of incubating intact ENs containing IR with increasing concentrations of ATP on subsequently measured insulin and hGH binding in both solubilized and WGA-purified receptors.

[2] = treatment of Type II diabetic patients; cited from earlier work
[3] = test system: intraendosomal insulin degradation; details: cited from earlier work
[4] = molecular target: T2, insulin receptor kinase (IRK) (Rattus norvegicus, UniProt P15127); test: Insulin receptor kinase (IRK) exogenous tyrosine kinase activity, Poly (Glu:Tyr) (4:1) substrate, WGA-purified IRK from preincubated cell fractions; type: biochemical
T2 construct: from tissue; host or cells: rat liver; endosome (EN) and plasma membrane (PM) fractions
T2 sequence (P15127 27-759 limits assumed): as the sequence (P15127 27-759 limits assumed) above
T2 sequence (P15127 764-1383 limits assumed): as the sequence (P15127 764-1383 limits assumed) above

[5] = molecular target: T3, insulin receptor kinase (IRK) β-subunit (Rattus norvegicus, UniProt P15127); test: IRK β-subunit phosphotyrosine content (αPY immunoblot of WGA eluates); type: biochemical
T3 construct: from tissue; host or cells: rat liver; endosome (EN) and plasma membrane (PM) fractions
T3 sequence (P15127 27-759 limits assumed): as the sequence (P15127 27-759 limits assumed) above
T3 sequence (P15127 764-1383 limits assumed): as the sequence (P15127 764-1383 limits assumed) above
Procedure: The phosphotyrosine content of endosomal IRs (ENs containing IR) was determined by subjecting lectin column (WGA-Sepharose™)-purified preparations to SDS-PAGE and immunoblotting with α960 and αPY (Faure et al. (1992) J. Biol. Chem. 267, 11215-11221). […] FIG. 1B illustrates the effect of ATP on β subunit phosphotyrosine content. WGA eluates (5 μg protein) were subjected to SDS-PAGE in 7.5% gels followed by transfer of proteins to Immobilon-P membranes. Membranes were probed with αPY or α960 antibodies followed by incubation with ^125I-GAR as second antibody and exposed for autoradiography.

SMILES: O=P([O-])([O-])OP(=O)([O-])[O-].[Na+].[Na+].[Na+].[Na+] [NaPiPi, sodium pyrophosphate]
- 125I-Insulin specific binding (%), WGA-purified endosomes [1]: 97.8 ± 2.3%

SMILES: CCN(CC)CCCC(C)Nc1ccnc2cc(Cl)ccc12 (stereo not shown) [chloroquine]
- Glucose metabolism in Type II diabetic patients [2]: improve glucose metabolism
- Intraendosomal insulin degradation [3]: inhibits intraendosomal insulin degradation

SMILES: Nc1ncnc2c1ncn2[C@@H]1O[C@H](COP(=O)(O)OP(=O)(O)CP(=O)(O)O)[C@@H](O)[C@H]1O [AMP—P—C—P]
- 125I-Insulin specific binding (%), Solubilized endosomes [1]: 109.1 ± 0.9%
- 125I-Insulin specific binding (%), WGA-purified endosomes [1]: 95.1 ± 2.0%
- Effect on level of IRK activity (FIG. 2) ([4]; 5 mM AMP-P-C-P, in the presence or absence of 1 mM ATP): no effect

SMILES: Nc1ncnc2c1ncn2[C@@H]1O[C@H](COP(=O)(O)OP(=O)(O)O)[C@@H](O)[C@H]1O [ADP]
- 125I-Insulin specific binding (%), Solubilized endosomes [1]: 96.3 ± 6.4%
- 125I-Insulin specific binding (%), WGA-purified endosomes [1]: 82.7 ± 5.2%

SMILES: Nc1ncnc2c1ncn2[C@@H]1O[C@H](CO)[C@@H](O)[C@H]1O [Adenosine, adenosine]
- 125I-Insulin specific binding (%), Solubilized endosomes [1]: 94.5 ± 4.1%
- 125I-Insulin specific binding (%), WGA-purified endosomes [1]: 105.9 ± 3.3%

SMILES: CO/C1=C\C(C)=C\[C@@H](C)[C@@H](O)[C@@H](C)C/C(C)=C/C=C/[C@H](OC)[C@@H]([C@@H](C)[C@@H](O)[C@H](C)[C@@]2(O)C[C@@H](O)[C@H](C)[C@@H](C(C)C)O2)OC1=O [Bafilomycin A1]
- Effect on ability of ATP to reduce IRK activation (FIG. 4A) ([4]; 1 μM Bafilomycin A1 preincubation 30 min 37° C., then 5 and 10 mM ATP 15 min): marked attenuation
- Effect on inhibition of IRK tyrosine phosphorylation and activity by 5 mM ATP ([4]; ENs containing IR incubated with 5 mM ATP): completely reversed
- IRK activity in ENs after preincubation, before ATP additions ([4]; preincubation with 1 μM Bafilomycin A1, 30 min 37° C. (without: 1.3)): 1.4 pmol/10 min/10 fmol insulin binding
- Level of IRK tyrosine phosphorylation at 5 mM ATP (FIG. 4B) ([5]; in the presence of Bafilomycin (1 μM), 5 mM ATP): comparable to that observed at 1 mM ATP

SMILES: O.O.O.OO.OO.[K+].[OH-].[V].c1cnc2c(c1)ccc1cccnc12 [bpV(phen)]
- Effect on suppression of IRK activity by 5 mM ATP (FIG. 6A) ([4]; coincubation of ENs with 0.1 mM bpV(phen)): did not prevent
- IRK activity of ENs isolated from pretreated rats ([4]; rats given bpV(phen) 0.6 μmol/100 g body weight i.v., ENs at 15 min): augmented IRK activity
- Effect on reduction in β-subunit tyrosine phosphorylation by 5 mM ATP (FIG. 6B) ([5]; bpV(phen) 0.1 mM in vitro or rats pretreated): did not influence the reduction

SMILES: Nc1ncnc2c1ncn2[C@@H]1O[C@H](COP(=O)(O)OP(=O)(O)NP(=O)(O)O)[C@@H](O)[C@H]1O [AMP—P—N—P]
- 125I-Insulin specific binding (%), Solubilized endosomes [1]: 112.2 ± 2.8%
- 125I-Insulin specific binding (%), WGA-purified endosomes [1]: 99.1 ± 1.0%
